The record followed here is patent US20230183291A1, “ANTI-INFECTIVE BICYCLIC PEPTIDE LIGANDS” (priority 2020, published 2023).

In assay [1] the target is T1, Biotinylated Human ACE2, His, Avitag protein (Homo sapiens, UniProt Q9BYF1).
T1 construct: His; purchased ACROBiosystems AC2-H82E6
Nature of the assay: Surface plasmon resonance (SPR) single cycle kinetics (SCK) direct binding. As to conditions: 25° C., Langmuir (1:1) model. As to the method: 2. Affinity Determination by Surface Plasmon Resonance (SPR) Via Single Cycle Kinetics (SCK)
Binding of bicyclic peptides of the invention to Biotinylated Human ACE2, His, Avitag™ protein (ACROBiosystems, AC2-H82E6) was assessed by a SCK analysis. Experiments were performed at 25° C. on a Biacore T200 (Cytiva) running Biacore T200 Control software V2.0.1 and Evaluation software V3.0 (Cytiva). HBS-EP+ (Cytiva) was used as running buffer as well as for ligand and analyte dilutions. Biotin CAPture reagent was loaded onto a Series S Sensor CAP Chip (Cytiva) followed by loading of the ACE2 protein at a flow rate of 2 μl/min. The surface was then allowed to stabilise.
SCK data was obtained using bicyclic peptides of the invention as analytes injected at a flow rate of 30 μl/min to minimise any potential mass transfer effects. A minimum four point 2-fold dilution of analyte based on the affinity of the bicyclic peptides of the invention in running buffer was used without regeneration between each concentration. The association phases were monitored for 100 seconds for each of the four injections of increasing concentrations of analyte and a single dissociation phase was measured for 400 seconds following the last injection of analyte. Regeneration of the sensor chip surface was conducted using the CAP Chip standard regeneration buffer (Cytiva).
The signal from the reference channel Fc1 (no ACE2 captured) was subtracted from that of Fc2, Fc3 and Fc4 to correct for bulk effect and differences in non-specific binding to a reference surface. The signal from each blank run (Fc2-ACE2 captured but no antigen) was subtracted to correct for differences in surface stability. The double referenced sensorgrams were fitted with the Langmuir (1:1) binding model (Equation 1a below) where the closeness of fit of the data to the model is evaluated using the Chi square value which describes the deviation between the experimental and fitted (observed and expected) curves (Equation 1b below).
(In general: Surface plasmon resonance follows binding to a sensor surface in real time, without labels.)

Assay [2] concerns the target T1, Biotinylated Human ACE2, His, Avitag protein. Nature of the assay: Surface plasmon resonance (SPR) multiple cycle kinetics (MCK) direct binding. As to conditions: 25° C., 6.25 nM to 100 nM analyte, Langmuir (1:1) model. As to the method:
3. Affinity Determination by Surface Plasmon Resonance (SPR) Via Multiple Cycle Kinetics (MCK)
Binding of bicyclic peptides of the invention to Biotinylated Human ACE2, His, Avitag™ protein (ACROBiosystems, AC2-H82E6) was assessed by a MCK analysis. Experiments were performed at 25° C. on a Biacore T200 (Cytiva) running Biacore T200 Control software V2.0.1 and Evaluation software V3.0 (Cytiva). HBS-EP+(Cytiva) was used as running buffer as well as for ligand and analyte dilutions. Biotin CAPture reagent was loaded onto a Series S Sensor CAP Chip (Cytiva) followed by loading of biotinylated ACE2 at a flow rate of 2 μl/min. The surface was then allowed to stabilise.
MCK data was obtained using bicyclic peptides of the invention as analytes injected at a flow rate of 30 μl/min to minimise any potential mass transfer effects. A five point, two-fold dilution range from 6.25 nM to 100 nM of analyte was prepared in running buffer. For each concentration, the association phases were monitored for 250 seconds and the dissociation phase was measured for 450 seconds. Regeneration of the sensor chip surface was conducted between cycles using the CAP Chip standard regeneration buffer (Cytiva). Multiple repeats of a blank and of Bicycle were programmed into the kinetic run in order to check the stability of both the surface and analyte over the kinetic cycles. […]

T1 sequence (Q9BYF1 18-740 limits assumed): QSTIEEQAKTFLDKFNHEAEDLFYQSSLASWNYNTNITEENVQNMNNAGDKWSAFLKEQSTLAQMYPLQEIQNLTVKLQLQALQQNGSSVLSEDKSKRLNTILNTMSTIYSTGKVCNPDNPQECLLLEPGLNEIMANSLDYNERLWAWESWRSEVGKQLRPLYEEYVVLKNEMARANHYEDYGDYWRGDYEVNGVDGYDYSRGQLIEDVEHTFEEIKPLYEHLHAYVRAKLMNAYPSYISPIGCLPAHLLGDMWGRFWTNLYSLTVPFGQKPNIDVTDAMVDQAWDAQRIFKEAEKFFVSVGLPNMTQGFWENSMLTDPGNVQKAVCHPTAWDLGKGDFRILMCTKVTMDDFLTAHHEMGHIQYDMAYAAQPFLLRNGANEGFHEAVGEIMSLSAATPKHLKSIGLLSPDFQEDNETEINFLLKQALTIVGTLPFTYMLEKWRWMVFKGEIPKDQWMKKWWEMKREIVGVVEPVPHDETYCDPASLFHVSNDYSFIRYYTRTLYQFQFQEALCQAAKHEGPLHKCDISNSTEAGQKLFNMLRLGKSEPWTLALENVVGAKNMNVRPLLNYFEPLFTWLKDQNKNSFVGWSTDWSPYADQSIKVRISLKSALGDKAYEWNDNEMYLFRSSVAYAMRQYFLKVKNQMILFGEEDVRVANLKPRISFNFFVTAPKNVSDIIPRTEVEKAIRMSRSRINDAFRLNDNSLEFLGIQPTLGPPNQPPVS

“CiNEVLCiiSWA[HArg]ANSFCiii cyclised with TATA [BCY18783, Ac-(SEQ ID NO: 55)]”: the “Geometric Mean KD (nM)” value in assay [1] is on record as “No sig. binding at top conc. tested”.
For the substance “CiNDVLCiiSWA[HArg]ANSFCiii cyclised with TATA [BCY18659, Ac-(SEQ ID NO: 54)]”, the “Geometric Mean KD (nM)” value in assay [1] is recorded as “No sig. binding at top conc. tested”.
Consider “CiNAVLCiiSWA[HArg][dA]NSFCiii cyclised with TATA [BCY18256, Ac-(SEQ ID NO: 45)]”, for which the “Geometric Mean KD (nM)” value in assay [1] was “No sig. binding at top conc. tested”.
With “CiNAVLCiiSWA[HArg][HyP]NSFCiii cyclised with TATA [BCY19024, Ac-(SEQ ID NO: 56)]”, the “Geometric Mean KD (nM)” value in assay [2] was “No sig. binding at top conc. tested”.
